Several values for one entry are separate records, joined by “and”; a condition that tells them apart may be missing. Equal entries are not always repeated. Where two headings read alike, the source gives them in different places.
Columns and labels:
[1] = biological target: T1, wild-type human OAT1 (HsOAT1) (Homo sapiens, UniProt Q4U2R8); test: Cell-based 6-CF transport assay, wild-type HsOAT1 in HeLa cells; settings: for 6-CF transport in presence of dicarboxylate, single experiments: dicarboxylate 0.5 mM, 8 minutes, n = 8
T1 sequence (Q4U2R8 1-563): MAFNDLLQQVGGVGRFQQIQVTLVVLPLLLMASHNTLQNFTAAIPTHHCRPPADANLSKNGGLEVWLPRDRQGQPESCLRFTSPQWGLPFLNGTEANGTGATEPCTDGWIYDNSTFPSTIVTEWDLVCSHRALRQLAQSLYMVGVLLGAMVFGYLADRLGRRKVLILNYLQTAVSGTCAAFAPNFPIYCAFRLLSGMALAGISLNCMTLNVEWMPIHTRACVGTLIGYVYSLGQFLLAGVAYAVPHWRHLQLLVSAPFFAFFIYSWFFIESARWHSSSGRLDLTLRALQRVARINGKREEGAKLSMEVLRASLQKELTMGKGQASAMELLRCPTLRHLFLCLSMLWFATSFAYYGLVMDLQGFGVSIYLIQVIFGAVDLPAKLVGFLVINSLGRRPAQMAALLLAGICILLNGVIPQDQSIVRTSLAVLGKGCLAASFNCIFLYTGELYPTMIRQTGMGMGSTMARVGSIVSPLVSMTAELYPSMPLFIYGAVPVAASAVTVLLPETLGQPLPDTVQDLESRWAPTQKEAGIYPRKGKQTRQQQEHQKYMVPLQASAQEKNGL
Method: (§1) To assay HsOAT1 transporter activity the model substrate 6-carboxyfluorescein (6-CF)[46],[47]
(§2) For transport assays, 1 × 10^5 cells per well were seeded into 24-well plates and 24 h later transfected using FUGENE HD (Promega E2311) Transfection Reagent (0.4 μg DNA per 1 μl of FUGENE per well) with HsOAT1 constructs containing a C-terminal FLAG tag in the vector pCDNA3.1 for 36 h. Expression of each mutant of HsOAT1 was assessed through western blotting on membrane fractions using an anti-FLAG antibody 1:3,000 dilution (Merck F1804), using a loading control of anti-β-actin 1:5,000 dilution (Merck A2228) (Extended Data Fig. 4). […] Background fluorescence was subtracted from cells transfected with the empty plasmid, and the data were normalized to 100%. To assess the activity of HsOAT1 in the presence and absence of chloride, the buffer was 120 mM NaCl, 28 mM glucose and 25 mM HEPES, pH 7.2 or for chloride-free conditions, and 120 mM sodium gluconate was used. […] To study the effect of ligands or inhibitors, the compound of interest was added to the assay buffer at the desired concentration. […] Each concentration was repeated three times to calculate standard errors, and the whole experiment was repeated three times to calculate the mean IC50 and standard error.

[2] = biological target: T1, wild-type human OAT1 (HsOAT1); test: cell-based
Method: as §1, §2

[3] = biological target: T2, OAT1 Ser350Ala (S350A) mutant, human (Homo sapiens, UniProt Q4U2R8, S350A); test: Cell-based 6-CF transport assay, HsOAT1 Ser350Ala mutant; settings: pH 7.2, probe 6-carboxyfluorescein (6-CF), 10 μM 6-CF, HeLa cells, mean ± s.d.
T2 sequence (Q4U2R8 1-563 S350A): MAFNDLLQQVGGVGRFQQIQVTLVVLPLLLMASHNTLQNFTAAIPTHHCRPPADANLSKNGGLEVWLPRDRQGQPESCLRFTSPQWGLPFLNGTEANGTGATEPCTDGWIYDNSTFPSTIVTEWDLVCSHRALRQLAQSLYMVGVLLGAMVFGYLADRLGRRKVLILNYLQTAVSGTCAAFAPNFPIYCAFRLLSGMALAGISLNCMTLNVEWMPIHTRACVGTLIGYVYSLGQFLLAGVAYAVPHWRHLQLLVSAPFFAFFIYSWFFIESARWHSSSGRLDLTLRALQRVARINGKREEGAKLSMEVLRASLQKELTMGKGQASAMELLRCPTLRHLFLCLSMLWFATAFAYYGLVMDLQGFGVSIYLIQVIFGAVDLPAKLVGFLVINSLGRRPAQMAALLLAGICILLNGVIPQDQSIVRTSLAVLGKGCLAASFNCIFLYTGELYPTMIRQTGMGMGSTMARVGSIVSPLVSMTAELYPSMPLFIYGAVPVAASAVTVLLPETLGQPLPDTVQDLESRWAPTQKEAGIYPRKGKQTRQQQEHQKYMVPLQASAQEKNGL

[4] = biological target: T3, human OAT1 Gly227Ala (G227A) (Homo sapiens, UniProt Q4U2R8, G227A); test: cell-based
T3 sequence (Q4U2R8 1-563 G227A): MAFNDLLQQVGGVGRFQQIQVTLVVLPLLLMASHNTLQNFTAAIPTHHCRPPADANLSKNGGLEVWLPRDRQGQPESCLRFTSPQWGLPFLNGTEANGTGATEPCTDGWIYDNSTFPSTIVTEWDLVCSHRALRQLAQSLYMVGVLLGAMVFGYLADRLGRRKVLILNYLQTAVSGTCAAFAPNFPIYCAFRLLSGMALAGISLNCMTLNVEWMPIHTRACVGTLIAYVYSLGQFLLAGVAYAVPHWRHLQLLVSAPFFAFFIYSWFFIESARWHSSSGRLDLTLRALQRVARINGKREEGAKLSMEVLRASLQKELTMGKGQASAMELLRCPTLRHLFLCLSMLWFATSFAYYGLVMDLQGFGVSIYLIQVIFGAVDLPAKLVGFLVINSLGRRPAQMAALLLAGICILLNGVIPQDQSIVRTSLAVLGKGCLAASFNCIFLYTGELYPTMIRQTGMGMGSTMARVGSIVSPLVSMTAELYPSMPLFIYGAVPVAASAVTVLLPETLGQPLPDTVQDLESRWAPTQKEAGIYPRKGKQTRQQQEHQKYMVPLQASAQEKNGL

[5] = biological target: T4, human OAT1 Tyr230Phe (Y230F) (Homo sapiens, UniProt Q4U2R8, Y230F); test: Cell-based 6-CF transport assay, HsOAT1 Tyr230Phe mutant; settings: 8 min
T4 sequence (Q4U2R8 1-563 Y230F): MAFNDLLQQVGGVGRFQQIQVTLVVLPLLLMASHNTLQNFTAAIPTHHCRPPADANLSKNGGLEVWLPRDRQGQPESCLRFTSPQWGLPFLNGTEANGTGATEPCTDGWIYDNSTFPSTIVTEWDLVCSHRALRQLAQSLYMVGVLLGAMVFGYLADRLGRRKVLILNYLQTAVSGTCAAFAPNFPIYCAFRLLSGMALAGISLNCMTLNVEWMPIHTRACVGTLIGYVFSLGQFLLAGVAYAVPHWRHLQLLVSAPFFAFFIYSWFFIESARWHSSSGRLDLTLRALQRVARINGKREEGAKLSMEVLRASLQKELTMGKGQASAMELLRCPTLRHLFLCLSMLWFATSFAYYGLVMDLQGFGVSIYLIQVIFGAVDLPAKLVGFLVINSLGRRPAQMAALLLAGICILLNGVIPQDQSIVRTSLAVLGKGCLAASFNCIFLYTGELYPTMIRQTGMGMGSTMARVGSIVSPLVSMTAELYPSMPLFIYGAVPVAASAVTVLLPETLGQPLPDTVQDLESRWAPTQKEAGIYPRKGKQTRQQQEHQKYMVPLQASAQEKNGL

[6] = biological target: T5, Biotinylated RnOat1 with a C-terminal Avi-tag followed by a FLAG tag (Rattus norvegicus, UniProt O35956, biotin (on the Avi-tag, by GST-BirA)); test: BLI; Octet Red 384; who was immobilised and the buffer are not told; n = 4 independent experiments; settings: both partners purified
T5 construct: Organic anion transporter 1 (Oat1, Slc22a6) of Rattus norvegicus; Used for the sybody selection; The host is likely Sf9 as for the structural construct (surmise); also called C-terminally Avi-Flag-tagged and biotinylated RnOat1; not shown: Avi-tag, C-terminal, kept

RnOat1 = biological target: T6, RnOat1 (Rattus norvegicus, UniProt O35956); test: Sybody binding by biolayer interferometry; design: unit not given here
T6 construct: made in house; host or cells: Sf9 insect cells (baculovirus)
T6 sequence (O35956 1-551): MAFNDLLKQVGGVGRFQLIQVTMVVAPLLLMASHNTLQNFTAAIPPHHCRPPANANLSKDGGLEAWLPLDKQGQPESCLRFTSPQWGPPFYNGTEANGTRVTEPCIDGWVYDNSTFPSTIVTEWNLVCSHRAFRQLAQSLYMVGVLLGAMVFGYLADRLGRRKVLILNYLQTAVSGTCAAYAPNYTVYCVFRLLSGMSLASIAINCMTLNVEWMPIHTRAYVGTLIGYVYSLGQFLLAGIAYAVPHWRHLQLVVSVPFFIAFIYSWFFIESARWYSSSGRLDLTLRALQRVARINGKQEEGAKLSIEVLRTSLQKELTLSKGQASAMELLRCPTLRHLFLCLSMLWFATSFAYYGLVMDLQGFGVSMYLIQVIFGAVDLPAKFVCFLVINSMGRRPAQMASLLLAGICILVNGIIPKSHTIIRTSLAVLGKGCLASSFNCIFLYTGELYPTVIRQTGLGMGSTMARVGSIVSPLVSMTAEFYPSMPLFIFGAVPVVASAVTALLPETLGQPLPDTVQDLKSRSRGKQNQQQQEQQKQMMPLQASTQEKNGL
Method: Sybody selection was performed against C-terminally Avi-Flag-tagged and biotinylated RnOat1 using methods described previously in ref. [48]. A high-affinity sybody with a slow off rate, as measured using biolayer interferometry (Octet Red 384), was identified from the concave library. The sybody was cloned and expressed as a C-terminally MycHis tagged construct from the pSB-init vector (Addgene no. 110100), (pSB_Syb25 Addgene no. 197992).

[7] = 8 min, read-out: 6-CF uptake, Mean

Molecule: O=C(O)CCCCCC(=O)O [pimelate]
- 6-CF transport in presence of dicarboxylate, single experiments [1]: 18.1607% and 12.7635% and 14.6181% and 17.3198% and 16.4606% and 11.6692%

Molecule: C[C@H](Cn1cnc2c(N)ncnc21)OCP(=O)(O)O [tenofovir]
- IC50 [2]: 120 ± 19 µM
- IC50 at 8 min [3]: 241 ± 11 µM
- 6-CF uptake, MEAN [1]: 99%
- 6-CF uptake, MEAN ([1]; WT Tenofovir, uM column 2): 79%
- 6-CF uptake, MEAN ([1]; WT Tenofovir, uM column 2.30103): 65%
- 6-CF uptake, MEAN ([1]; WT Tenofovir, uM column 2.60206): 35%
- 6-CF uptake, MEAN ([1]; WT Tenofovir, uM column 3): 24%
- 6-CF uptake, MEAN ([1]; WT Tenofovir, uM column 3.17609): 12%
- remaining activity at 1 µM [4, 7]: 99.8%
- remaining activity at 2 µM [4, 7]: 82.7%
- remaining activity at 2.30103 µM [4, 7]: 69.5%
- remaining activity at 2.60206 µM [4, 7]: 40.3%
- remaining activity at 3 µM [4, 7]: 31.2%
- remaining activity at 3.17609 µM [4, 7]: 15.6%
- effect of Gly227Ala mutant on tenofovir recognition ([4]; versus wild type, Fig. 2f): no discernible effect
- remaining activity at 1 µM ([5]; read-out: 6-CF uptake, Mean): 99%
- remaining activity at 2 µM ([5]; read-out: 6-CF uptake, Mean): 95.2%
- remaining activity at 2.30103 µM ([5]; read-out: 6-CF uptake, Mean): 87%
- remaining activity at 2.60206 µM ([5]; read-out: 6-CF uptake, Mean): 68.5%
- remaining activity at 3 µM ([5]; read-out: 6-CF uptake, Mean): 52.3%
- remaining activity at 3.17609 µM ([5]; read-out: 6-CF uptake, Mean): 35%
- IC50 ([5]; Tyr230Phe, 10 μM 6-CF, HeLa cells, mean ± s.d.): 450 ± 26 µM

Molecule: O=C(O)CCC(=O)O [succinate]
- 6-CF transport in presence of dicarboxylate, single experiments [1]: 62.6553% and 71.4816% and 66.0745% and 69.225% and 69.843% and 74.8162% and 55.8733% and 76.8934%

B1: Sybody (synthetic nanobody) against RnOat1, Syb25 (VHH)
VHH: QVQLVESGGGLVQAGGSLRLSCAASGFPVKTEWMEWYRQAPGKEREWVAAIWSYGSGTRYADSVKGRFTISRDNAKNTVYLQMNSLKPEDTAVYYCLVRVGSWYHGQGTQVTVSA
notes: selected from the concave sybody library; source: expressed from the pSB-init vector
- Kd [6]: 0.075 µM
- binding response (ED Fig 3e source data) (RnOat1; Conc. 7.81 nM): 0.004
- binding response (ED Fig 3e source data) (RnOat1; Conc. 15.625 nM): 0.0165
- binding response (ED Fig 3e source data) (RnOat1; Conc. 31.25 nM): 0.04633
- binding response (ED Fig 3e source data) (RnOat1; Conc. 62.5 nM): 0.1353
- binding response (ED Fig 3e source data) (RnOat1; Conc. 250 nM): 0.201
- binding response (ED Fig 3e source data) (RnOat1; Conc. 500 nM): 0.2162
- binding response (ED Fig 3e source data) (RnOat1; Conc. 1000 nM): 0.2225
- binding response (ED Fig 3e source data) (RnOat1; Conc. 2000 nM): 0.23

From paper PMC10643130, “Molecular basis for selective uptake and elimination of organic anions in the kidney by OAT1” (Nature Structural & Molecular Biology, 2023)
